Data taken from ChEMBL document CHEMBL6096638, “Design, synthesis and biological evaluation of novel TMPRSS2-PROTACs with florosubstituted 4-guanidino-N-phenylbenzamide derivative ligands” (Bioorg Med Chem, 2024).
pIC50: −log10 of the molar value. Activity calls are given as the source filed them. No cut-off for these calls is given here.

How the values were obtained:
HT-29 [1] = assay: Induction of apoptosis in human HT-29 cells assessed as necrotic cells at 0.4 uM incubated for 48 hrs by Annexin V-FITC/PI staining based flow cytometric analysis (reference value: 2.48 %); assay type: functional
SH-SY5Y = assay: Antiproliferative activity against human SH-SY5Y cells assessed as inhibition of cell growth incubated for 48 hrs by CCK-8 assay; assay type: functional, cell-based
HT-29 [2] = assay: Inhibition of cell migration in human HT-29 cells at 0.2 to 0.8 uM incubated for 48 hrs by wound healing assay; assay type: functional, cell-based; conditions: dose 0.2-0.8 µM
PC-3 = assay: Antiproliferative activity against human PC-3 cells assessed as inhibition of cell growth incubated for 48 hrs by CCK-8 assay; assay type: functional, cell-based; conditions: PC-3, 48 h
HT-29 [3] = assay: Induction of apoptosis in human HT-29 cells assessed as necrotic cells at 0.2 uM incubated for 48 hrs by Annexin V-FITC/PI staining based flow cytometric analysis (reference value: 2.48 %); assay type: functional
HT-29 [4] = assay: Induction of apoptosis in human HT-29 cells assessed as late apoptotic cells at 0.8 uM incubated for 48 hrs by Annexin V-FITC/PI staining based flow cytometric analysis (reference value: 5.87 %); assay type: functional
MDA-MB-231 = assay: Antiproliferative activity against human MDA-MB-231 cells assessed as inhibition of cell growth incubated for 48 hrs by CCK-8 assay; assay type: functional, cell-based; conditions: MDA-MB-231, 48 h
A-375 = assay: Antiproliferative activity against human A-375 cells assessed as inhibition of cell growth incubated for 48 hrs by CCK-8 assay; assay type: functional, cell-based; conditions: A-375, 48 h
HT-29 [5] = assay: Induction of apoptosis in human HT-29 cells assessed as necrotic cells at 0.8 uM incubated for 48 hrs by Annexin V-FITC/PI staining based flow cytometric analysis (reference value: 2.48 %); assay type: functional
HT-29 [6] = assay: Induction of apoptosis in human HT-29 cells assessed as early apoptotic cells at 0.4 uM incubated for 48 hrs by Annexin V-FITC/PI staining based flow cytometric analysis (reference value: 1.22 %); assay type: functional
HT-29 [7] = assay: Induction of cell cycle arrest in human HT-29 cells assessed as accumulation of cells at G2 phase at 0.8 uM incubated for 36 hrs by PI-staining based flow cytometry; assay type: functional
A549 = assay: Antiproliferative activity against human A549 cells assessed as inhibition of cell growth incubated for 48 hrs by CCK-8 assay; assay type: functional, cell-based; conditions: A549, 48 h
786-0 = assay: Antiproliferative activity against human 786-0 cells assessed as inhibition of cell growth incubated for 48 hrs by CCK-8 assay; assay type: functional, cell-based; conditions: 786-0, 48 h
HT-29 [8] = assay: Inhibition of colony formation in human HT-29 cells incubated for 24 hrs by crystal violet staining based analysis; assay type: functional, cell-based; conditions: dose 0.1-0.4 µM
NCI-H1299 = assay: Antiproliferative activity against human NCI-H1299 cells assessed as inhibition of cell growth incubated for 48 hrs by CCK-8 assay; assay type: functional, cell-based; conditions: NCI-H1299, 48 h
AGS = assay: Antiproliferative activity against human AGS cells assessed as inhibition of cell growth incubated for 48 hrs by CCK-8 assay; assay type: functional, cell-based
SK-N-AS = assay: Antiproliferative activity against human SK-N-AS cells assessed as inhibition of cell growth incubated for 48 hrs by CCK-8 assay; assay type: functional, cell-based
DU-145 [9] = assay: Antiproliferative activity against human DU-145 cells assessed as inhibition of cell growth incubated for 48 hrs by CCK-8 assay; assay type: functional, cell-based; conditions: DU-145, 48 h
HT-29 [10] = assay: Antiproliferative activity against human HT-29 cells assessed as inhibition of cell growth incubated for 48 hrs by CCK-8 assay; assay type: functional, cell-based; conditions: HT-29, 48 h
HT-29 [11] = assay: Antiproliferative activity against human HT-29 cells assessed as inhibition of cell growth at 20 uM incubated for 48 hrs by CCK-8 assay relative to control; assay type: functional
HepG2 = assay: Antiproliferative activity against human HepG2 cells assessed as inhibition of cell growth incubated for 48 hrs by CCK-8 assay; assay type: functional, cell-based; conditions: HepG2, 48 h
HT-29 [12] = assay: Induction of apoptosis in human HT-29 cells assessed as late apoptotic cells at 0.2 uM incubated for 48 hrs by Annexin V-FITC/PI staining based flow cytometric analysis (reference value: 5.87 %); assay type: functional
Calu-3 [13] = assay: Antiproliferative activity against human Calu-3 cells assessed as inhibition of cell growth at 20 uM incubated for 48 hrs by CCK-8 assay relative to control; assay type: functional
HT-29 [14] = assay: Induction of apoptosis in human HT-29 cells assessed as early apoptotic cells at 0.2 uM incubated for 48 hrs by Annexin V-FITC/PI staining based flow cytometric analysis (reference value: 1.22 %); assay type: functional
MRC5 = assay: Antiproliferative activity against human MRC5 cells assessed as inhibition of cell growth incubated for 48 hrs by CCK-8 assay; assay type: functional, cell-based; conditions: MRC5, 48 h
Calu-3 [15] = assay: Antiproliferative activity against human Calu-3 cells assessed as inhibition of cell growth incubated for 48 hrs by CCK-8 assay; assay type: functional, cell-based; conditions: Calu-3, 48 h
HT-29 [16] = assay: Induction of apoptosis in human HT-29 cells assessed as early apoptotic cells at 0.8 uM incubated for 48 hrs by Annexin V-FITC/PI staining based flow cytometric analysis (reference value: 1.22 %); assay type: functional
HT-29 [17] = assay: Induction of apoptosis in human HT-29 cells assessed as late apoptotic cells at 0.4 uM incubated for 48 hrs by Annexin V-FITC/PI staining based flow cytometric analysis (reference value: 5.87 %); assay type: functional
MCF7 = assay: Antiproliferative activity against human MCF7 cells assessed as inhibition of cell growth incubated for 48 hrs by CCK-8 assay; assay type: functional, cell-based; conditions: MCF7, 48 h
VCaP = assay: Antiproliferative activity against human VCaP cells assessed as inhibition of cell growth incubated for 48 hrs by CCK-8 assay; assay type: functional, cell-based
HT-29 [18] = assay: Induction of apoptosis in human HT-29 cells assessed as viable cells at 0.2 uM incubated for 48 hrs by Annexin V-FITC/PI staining based flow cytometric analysis (reference value: 90.4 %); assay type: functional; conditions: read-out: Activity
HT-29 [19] = assay: Induction of apoptosis in human HT-29 cells assessed as viable cells at 0.8 uM incubated for 48 hrs by Annexin V-FITC/PI staining based flow cytometric analysis (reference value: 90.4 %); assay type: functional; conditions: read-out: Activity
K562 = assay: Antiproliferative activity against human K562 cells assessed as inhibition of cell growth incubated for 48 hrs by CCK-8 assay; assay type: functional, cell-based; conditions: K562, 48 h
DU-145 [20] = assay: Antiproliferative activity against human DU-145 cells assessed as inhibition of cell growth at 20 uM incubated for 48 hrs by CCK-8 assay relative to control; assay type: functional
[21] = target: von Hippel-Lindau disease tumor suppressor/Transmembrane protease serine 2 (Homo sapiens) (UniProt O15393+P40337); assay: PROTAC activity at VHL/TMPRSS2 in human HT-29 cells assessed as induction of TMPRSS2 degradation at 2.5 uM incubated for 24 hrs by Western blotting analysis; assay type: cell-based
HT-29 [22] = assay: Induction of apoptosis in human HT-29 cells assessed as viable cells at 0.4 uM incubated for 48 hrs by Annexin V-FITC/PI staining based flow cytometric analysis (reference value: 90.4 %); assay type: functional; conditions: read-out: Activity
CWR22R = assay: Antiproliferative activity against human 22Rv1 cells assessed as inhibition of cell growth incubated for 48 hrs by CCK-8 assay; assay type: functional, cell-based; conditions: 22Rv1, 48 h

Chain of von Hippel-Lindau disease tumor suppressor/Transmembrane protease serine 2 (Homo sapiens) (O15393 whole entry, looked up): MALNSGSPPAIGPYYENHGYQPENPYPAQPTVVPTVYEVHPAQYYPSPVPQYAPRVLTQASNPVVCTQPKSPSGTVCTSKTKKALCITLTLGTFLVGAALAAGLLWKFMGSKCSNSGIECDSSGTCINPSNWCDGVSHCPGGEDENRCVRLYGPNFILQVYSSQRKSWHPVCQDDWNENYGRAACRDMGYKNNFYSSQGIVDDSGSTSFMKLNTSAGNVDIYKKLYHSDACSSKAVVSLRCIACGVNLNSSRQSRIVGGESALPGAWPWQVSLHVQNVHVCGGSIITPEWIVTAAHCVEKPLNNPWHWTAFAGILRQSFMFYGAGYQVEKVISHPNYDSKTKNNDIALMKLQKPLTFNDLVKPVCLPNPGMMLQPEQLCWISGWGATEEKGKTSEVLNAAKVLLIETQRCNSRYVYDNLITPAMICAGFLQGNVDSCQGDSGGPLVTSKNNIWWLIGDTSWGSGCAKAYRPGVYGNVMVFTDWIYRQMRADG
Chain of von Hippel-Lindau disease tumor suppressor/Transmembrane protease serine 2 (Homo sapiens) (P40337 whole entry, looked up): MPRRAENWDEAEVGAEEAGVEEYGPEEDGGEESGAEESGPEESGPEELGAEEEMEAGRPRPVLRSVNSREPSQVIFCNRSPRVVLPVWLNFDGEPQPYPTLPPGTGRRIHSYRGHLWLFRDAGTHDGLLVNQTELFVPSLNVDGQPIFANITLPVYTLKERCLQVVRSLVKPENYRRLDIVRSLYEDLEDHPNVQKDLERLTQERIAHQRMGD

pIC50 (SH-SY5Y)	pIC50 (PC-3)	pIC50 (MDA-MB-231)	pIC50 (A-375)	pIC50 (A549)	pIC50 (786-0)	pIC50 (NCI-H1299)	pIC50 (AGS)	pIC50 (SK-N-AS)	pIC50 (DU-145 [9])	pIC50 (HT-29 [10])	pIC50 (HepG2)	pIC50 (Calu-3 [15])	pIC50 (MCF7)	pIC50 (VCaP)	pIC50 (K562)	SMILES	pIC50 (MRC5)	pIC50 (CWR22R)	other results
4.74	4.61	4.97	5.02	4.91	4.46	< 4.40	4.83	5.16	5.28	6.41	5.06	5.79	4.88	5.12	5.05	Cc1ncsc1-c1ccc([C@H](C)NC(=O)[C@@H]2C[C@@H](O)CN2C(=O)[C@@H](NC(=O)CN2CCC(CN3CCN(c4ccc(NC(=O)c5cc(F)c(NC(=N)N)cc5F)cc4)CC3)CC2)C(C)(C)C)cc1.Cl	< 4.40	4.70	Activity (HT-29 [1]): 4.21%; Activity (HT-29 [2]): Active; Activity (HT-29 [3]): 6.59%; Activity (HT-29 [4]): 23.2%; Activity (HT-29 [5]): 3.01%; Activity (HT-29 [6]): 3.74%; Activity (HT-29 [7]): Active; inhibition (HT-29 [8]): Dose-dependent-effect; inhibition at 20 µM (HT-29 [11]): 94.6%; Activity (HT-29 [12]): 13%; inhibition at 20 µM (Calu-3 [13]): 96.1%; Activity (HT-29 [14]): 1.58%; Activity (HT-29 [16]): 15.3%; Activity (HT-29 [17]): 11.6%; viability at 0.2 µM (HT-29 [18]): 78.8%; viability at 0.8 µM (HT-29 [19]): 58.5%; inhibition at 20 µM (DU-145 [20]): 74.6%; Activity [21]: Active; viability at 0.4 µM (HT-29 [22]): 80.4%
8.00	5.12	7.22	8.00	–	7.10	5.94	8.00	8.00	8.00	8.00	–	4.43	–	5.26	8.00	CC(=O)O[C@H]1C(=O)[C@@]2(C)[C@H]([C@H](OC(=O)c3ccccc3)[C@]3(O)C[C@H](OC(=O)[C@H](O)[C@@H](NC(=O)c4ccccc4)c4ccccc4)C(C)=C1C3(C)C)[C@]1(OC(C)=O)CO[C@@H]1C[C@@H]2O [PACLITAXEL]	6.96	7.40	–
4.43	4.40	< 4.40	< 4.40	< 4.40	< 4.40	4.72	< 4.40	< 4.40	< 4.40	< 4.40	< 4.40	4.42	< 4.40	< 4.40	< 4.40	N=C(N)Nc1ccc(C(=O)Oc2ccc3cc(C(=N)N)ccc3c2)cc1 [NAFAMOSTAT]	< 4.40	< 4.40	–
